From US20260245655A1, “METHODS FOR DETERMINING DRUG CANDIDATES” (MOSAIQUES DIAGNOSTICS AND THERAPEUTICS AG, priority 2023, published 2026) come the findings set out here.

Each structure is given as a SMILES string. “Also recorded” adds a separate entry of the source.

The test system of assay [1] is BC cell lines: non-muscle invasive (RT112) and muscle invasive (T24, BFTC905, HT1376) cells. The experiment in a line: in vitro screening of drug candidates on growth/proliferation of BC cell lines. The class given is cell-based. Particulars: for proliferation rate of the BC cells (dose response curves): FIG. 2; for cell growth of BC cells: in vitro, panel of BC cell lines RT112, T24, BFTC905, HT1376. The procedure:
The impact of the drug candidates onto the malignant phenotype of BC cells was assessed in vitro in a panel of multi-origin BC cell lines representing different stages during disease progression. These included non-muscle invasive (RT112) and muscle invasive (T24, BFTC905, HT1376) cells.
Accordingly, these compounds were selected for further investigation, here providing the response curves for four different BC cell lines. Representative response curves of the seven compounds are presented in FIG. 2, along with the respective IC50s. A clear impact was observed on the proliferation of the BC cells for all seven compounds.
FIG. 2. The dose response curves of cephaeline (i-ii), exemestane (iii-iv) and 1,4 chrysenequinone (v-vi) in the BC cell lines RT112, T24, HT1376 and BFTC905. The dose response curves of fluvoxamine (vii), amiodarone (viii), isradipine (ix) and amodiaquine (x) in the RT112 cells are also provided.

The next assay deals with BFTC905 xenograft. The experiment in a line: BFTC905 xenograft mouse model. Format: in vivo, NOD/SCID male mice. The conditions noted are these: start three days after cell injection, observed at least 17 days, vs DMSO control. The procedure:
In vivo testing of exemestane, cephaeline and 1,4 chrysenequinone was performed in xenograft mouse models. Particularly, the model was established after injecting […] BFTC905 cells subcutaneously into the tail base of NOD/SCID male mice. Male mice were selected for these experiments since males are more prone to develop BC. The treatments started three days after the injections of the cancer cells. The treatment scheme was 30 mg/kg/every 3rd day for exemestane, 5 mg/kg/daily for cephaeline and 5 mg/kg/daily for 1,4 chrysenequinone. As controls were used animals injected with DMSO diluted in PBS (at a final concentration similar to the one of the compounds).
FIG. 3. The impact of cephaeline, exemestane and 1,4 chrysenequinone in vivo in BFTC905 xenograft mouse models.

Where [2] appears, read: BC cell lines RT112, T24, HT1376 and BFTC905.

For the compound `O=C1C=CC(=O)c2c1ccc1c2ccc2ccccc21` [1,4-chrysenequinone], the “proliferation rate of the BC cells (dose response curves)” value (“proliferation rate of the BC cells” below) in assay [1] (setting [2]) was “significantly decreased the proliferation rate”. Moreover, in assay [1], the “cell growth of BC cells” value was “prevented cell growth at relatively low concentrations”. Moreover, in the assay on BFTC905 xenograft (5 mg/kg/daily), the “impact on tumor establishment or growth” value is reported as “no significant impact on tumour growth”.

`CCCCc1oc2ccccc2c1C(=O)c1cc(I)c(OCCN(CC)CC)c(I)c1` [amiodarone]: the “proliferation rate of the BC cells” value in assay [1] (RT112 cells) was “significantly decreased the proliferation rate”. For the same compound, in assay [1], the “cell growth of BC cells” value is reported as “prevented cell growth at relatively low concentrations”.

For `CCN(CC)Cc1cc(Nc2ccnc3cc(Cl)ccc23)ccc1O` [amodiaquine], the “proliferation rate of the BC cells” value in assay [1] (RT112 cells) is recorded as “significantly decreased the proliferation rate”. Further, in assay [1], the “cell growth of BC cells” value is on record as “prevented cell growth at relatively low concentrations”.

On to `C=C1C[C@@H]2[C@H](CC[C@]3(C)C(=O)CC[C@@H]23)[C@@]2(C)C=CC(=O)C=C12` [exemestane], for which the “proliferation rate of the BC cells” value in assay [1] (setting [2]) is “significantly decreased the proliferation rate”. Besides, in assay [1], the “cell growth of BC cells” value was “prevented cell growth at relatively low concentrations”. Also, the “impact on tumor establishment or growth” value in the assay with BFTC905 xenograft (30 mg/kg/every 3rd day) is recorded as “clear impact on tumor establishment or growth; also recorded: significantly decreased tumor establishment or growth”.

For `COCCCC/C(=N\OCCN)c1ccc(C(F)(F)F)cc1` [fluvoxamine], the “proliferation rate of the BC cells” value in assay [1] (RT112 cells) was “significantly decreased the proliferation rate”. In assay [1], the “cell growth of BC cells” value is “prevented cell growth at relatively low concentrations”.

`COC(=O)C1=C(C)NC(C)=C(C(=O)OC(C)C)C1c1cccc2nonc12` (centres unmarked) [isradipine]: the “proliferation rate of the BC cells” value in assay [1] (RT112 cells) is given as “significantly decreased the proliferation rate”. In assay [1], the “cell growth of BC cells” value is on record as “prevented cell growth at relatively low concentrations”.
